Data set [1] in a line: Acid resistance (half-life period). The following applies: acid ph 1.3, Temperature 37° C, pH 1.3, read-out: τ1/2 half-life period (acid resistance). Format: physicochemical. The method, then:
(§1) All compounds of this group were prepared in the form of sodium salts. Bactericidal activity, degree of hydrolysis with staphylococc penicillinase and acid resistance of the penicillins were determined.

A short description of the next data set: in vivo. The conditions noted are these: mouse, iv.
The next data set deals with Myco smegmatis. The data set is described as follows: Minimal bacteriostatic concentration. The format is cell-based. The following applies: sodium salts. The method, then: as §1
The test system of the next data set is Staph. albus. In words: Minimal bacteriostatic concentration. The format is cell-based. The conditions noted are these: sodium salts. The method, then:
as §1

The subject of another data set is Staph. aureus 209p. In words: Minimal bacteriostatic concentration. Format: cell-based. The following applies: Staphylococcus aureus, sodium salts. How it is done: as §1
A further data set has as its system Ps.aeruginosa. In words: Minimal bacteriostatic concentration. Format: cell-based. The following applies: Pseudomonas aeruginosa, sodium salts. How it is done: as §1
Another data set has as its system E.typhi. The data set is described as follows: Minimal bacteriostatic concentration. The following applies: read-out: Minimal Bacteriostatic Concentration. Format: cell-based. The method, then:
as §1

A further data set has as its system B.Subtitis ATCC6633. In words: Minimal bacteriostatic concentration. The following applies: sodium salts. Format: cell-based. How it is done: as §1
In another data set the test system is Sh.dysenteriae Flexneri. In words: Minimal bacteriostatic concentration. Format: cell-based. The following applies: Shigella dysenteriae, read-out: Minimal Bacteriostatic Concentration. How it is done:
as §1

The subject of a further data set is Vibrion Metschnicoff. The data set is described as follows: Minimal bacteriostatic concentration. Format: cell-based. The conditions noted are these: Vibrion Metschnicoff; sodium salts; read-out: Minimal Bacteriostatic Concentration. How it is done: as §1
A further data set deals with Strept. pyrogenes. In words: Minimal bacteriostatic concentration. Format: cell-based. The following applies: sodium salts. How it is done: as §1
The test system of another data set is E.coli O-55. The data set is described as follows: Minimal bacteriostatic concentration. The format is cell-based. The following applies: Escherichia coli, O55, read-out: Minimal Bacteriostatic Concentration. How it is done: as §1
In a further data set the test system is Prot.vulgaris. The data set is described as follows: Minimal bacteriostatic concentration. Format: cell-based. The conditions noted are these: Proteus vulgaris, sodium salts. The method, then: as §1
Data set [2] addresses staphylococc penicillinase (Staphylococcus aureus, UniProt P00807). The data set is described as follows: Hydrolysis/inactivation by staphylococc penicillinase. Format: biochemical. The following applies: Table 5. How it is done: as §1
The substitution of propoxy radical for iso-radical in this position is not accompanied by areduction of penicillin stability against penicillinase which is not observed in the orto- and para-positions. During the subsequent hours of inactivation the rate of hydrolysis of penicillins slightly increases. However, even when observed in dynamics, their stability against penicillianase still persists during 4-hour-inactivation.

≈ marks a conversion by molar mass, not a printed value. Like-named read-outs stand apart in the source and are kept apart here.

Chain of staphylococc penicillinase (P00807 25-281): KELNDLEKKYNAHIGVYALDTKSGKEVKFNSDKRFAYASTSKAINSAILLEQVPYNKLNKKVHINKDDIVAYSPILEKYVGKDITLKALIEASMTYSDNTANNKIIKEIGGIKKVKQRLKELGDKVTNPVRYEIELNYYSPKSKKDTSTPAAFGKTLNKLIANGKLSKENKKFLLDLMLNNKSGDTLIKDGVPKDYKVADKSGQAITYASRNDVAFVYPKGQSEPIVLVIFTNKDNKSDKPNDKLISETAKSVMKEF

Regarding `CC(C)Oc1ccc(C2(C(=O)NC3C(=O)N4C3SC(C)(C)C4C(=O)O)CCCC2)cc1` (stereo not shown) [Compound XV (Table 1)], in data set [1] (Table 1, cyclopentyl series), the half-life worked out at 160 min. The compound also yielded an MTD in the data set “in vivo” of 1500 mg/kg. In addition, the MIC is greater than 500 µg/mL in the data set on Myco smegmatis; 0.19 µg/mL with Staph. albus; 0.19 µg/mL with Staph. aureus 209p; greater than 500 µg/mL in the data set with Ps.aeruginosa; 7.8 µg/mL (≈ 17.5 µM) in the data set with E.typhi; 0.24 µg/mL in the data set with B.Subtitis ATCC6633. Further, the MIC is 31.2 µg/mL (≈ 69.9 µM) in the data set on Sh.dysenteriae Flexneri; 0.48 µg/mL in the data set on Vibrion Metschnicoff; 0.09 µg/mL in the data set on Strept. pyrogenes; 25 µg/mL (≈ 56 µM) with E.coli O-55; 62.5 µg/mL in the data set on Prot.vulgaris. The “Quantity of inactivated units of compounds under the action of 1 unit of staphylococc penicillinase” value (“Quantity” for short) in [2] amounted to 9.4 units.
For `CCCOc1ccc(C2(C(=O)NC3C(=O)N4C3SC(C)(C)C4C(=O)O)CCCC2)cc1` (stereo not shown) [Compound XIV (Table 1)], in data set [1] (Table 1, cyclopentyl series), the half-life turned out to be 88.9 min. The MTD in “in vivo” turned out to be 1500 mg/kg. The MIC in the data set on Myco smegmatis is greater than 500 µg/mL; with Staph. albus it was 0.09 µg/mL; in the data set on Staph. aureus 209p, 0.39 µg/mL; in the data set on Ps.aeruginosa it was greater than 500 µg/mL; in the data set on E.typhi, 7.8 µg/mL (≈ 17.5 µM); with B.Subtitis ATCC6633 it was 0.24 µg/mL. Moreover, the MIC in the data set on Sh.dysenteriae Flexneri was found to be 31.2 µg/mL (≈ 69.9 µM); in the data set on Vibrion Metschnicoff, 0.9 µg/mL; with Strept. pyrogenes, 0.048 µg/mL; in the data set with E.coli O-55, 125 µg/mL (≈ 280 µM); in the data set on Prot.vulgaris it was 62.5 µg/mL. Besides, in [2], the “Quantity” value is on record as 10.4 units.
Consider `COc1ccc(C2(C(=O)NC3C(=O)N4C3SC(C)(C)C4C(=O)O)CCCC2)cc1` (stereo not shown) [Compound XII (Table 1)], for which the half-life in [1] (Table 1, cyclopentyl series) was 163 min. Moreover, the MTD in the data set “in vivo” was found to be 2000 mg/kg. For the same compound, the MIC in the data set on Myco smegmatis was greater than 500 µg/mL; in the data set with Staph. albus, 0.19 µg/mL; in the data set with Staph. aureus 209p, 0.19 µg/mL; in the data set with Ps.aeruginosa it was greater than 500 µg/mL; in the data set with E.typhi it was 7.8 µg/mL (≈ 18.6 µM); in the data set on B.Subtitis ATCC6633, 0.24 µg/mL. The MIC in the data set on Sh.dysenteriae Flexneri was 31.2 µg/mL (≈ 74.5 µM); in the data set with Vibrion Metschnicoff, 0.48 µg/mL; with Strept. pyrogenes, 0.048 µg/mL; with E.coli O-55, 125 µg/mL (≈ 299 µM); in the data set on Prot.vulgaris, 62.5 µg/mL. Further, the “Quantity” value in data set [2] was found to be 40.3 units.
In the case of `CCCCOc1cccc(C2(C(=O)NC3C(=O)N4C3SC(C)(C)C4C(=O)O)CCCC2)c1` (stereo not shown) [Compound XI (Table 1)], the half-life in data set [1] (Table 1, cyclopentyl series) worked out at 278 min. This compound also registered an MTD in “in vivo” of 2000 mg/kg. For the same compound, the MIC is greater than 500 µg/mL in the data set with Myco smegmatis; 0.19 µg/mL in the data set with Staph. albus; 0.39 µg/mL with Staph. aureus 209p; 1.56 µg/mL with B.Subtitis ATCC6633; 125 µg/mL (≈ 271 µM) in the data set on Sh.dysenteriae Flexneri; 15.6 µg/mL in the data set with Vibrion Metschnicoff. Moreover, the MIC in the data set on Strept. pyrogenes is 0.39 µg/mL; with E.coli O-55, 125 µg/mL (≈ 271 µM); in the data set on Prot.vulgaris, 125 µg/mL. Also, in [2], the “Quantity” value came out at 11.2 units.
As for `CCCCOc1ccc(C2(C(=O)NC3C(=O)N4C3SC(C)(C)C4C(=O)O)CCCC2)cc1` (stereo not shown) [Compound XVI (Table 1)], in data set [1] (Table 1, cyclopentyl series), the half-life worked out at 43.2 min. Besides, the MTD in “in vivo” amounted to 1500 mg/kg. Besides, the MIC with Myco smegmatis was greater than 500 µg/mL; with Staph. albus, 0.19 µg/mL; with Staph. aureus 209p, 0.39 µg/mL; in the data set on Ps.aeruginosa, greater than 500 µg/mL; in the data set on E.typhi, 15.6 µg/mL (≈ 33.9 µM); in the data set on B.Subtitis ATCC6633, 0.24 µg/mL. The MIC is 62.5 µg/mL (≈ 136 µM) in the data set on Sh.dysenteriae Flexneri; 0.48 µg/mL in the data set on Vibrion Metschnicoff; 0.048 µg/mL in the data set with Strept. pyrogenes; 125 µg/mL (≈ 271 µM) in the data set with E.coli O-55; 125 µg/mL with Prot.vulgaris. For the same compound, the “Quantity” value in data set [2] was 23.3 units.
On to `CCOc1cccc(C2(C(=O)N[C@@H]3C(=O)N4[C@@H]3SC(C)(C)[C@@H]4C(=O)O)CCC2)c1` [Compound VIII (Table 3)], for which, in data set [1] (Table 3, cyclobutyl series), the half-life was 23.8 min. Also, the MTD in the data set “in vivo” was determined as 1500 mg/kg.
Taken in the same sequence, the figures for `COc1cccc(C2(C(=O)N[C@@H]3C(=O)N4[C@@H]3SC(C)(C)[C@@H]4C(=O)O)CCC2)c1` [Compound VII (Table 3)] were 56.9 min and 1500 mg/kg.
With `COc1cccc(C2(C(=O)NC3C(=O)N4C3SC(C)(C)C4C(=O)O)CC2)c1` (stereo not shown) [Compound VII (Table 2)], the half-life in data set [1] (Table 2, cyclopropyl series) was determined as 7.2 min. In the data set “in vivo”, this compound had an MTD of 1500 mg/kg.
Take `CCOc1ccc(C2(C(=O)NC3C(=O)N4C3SC(C)(C)C4C(=O)O)CCCC2)cc1` (stereo not shown) [Compound XIII (Table 1), 1-(n-Ethoxyphenyl)Cyclopentyl-1-Penicillin]: in [1] (Table 1, cyclopentyl series), the half-life amounted to 99.2 min. Moreover, the MTD in the data set “in vivo” is 1500 mg/kg. The MIC was greater than 500 µg/mL with Myco smegmatis; 0.09 µg/mL with Staph. albus; 0.19 µg/mL with Staph. aureus 209p; greater than 500 µg/mL in the data set with Ps.aeruginosa; 7.8 µg/mL (≈ 18 µM) in the data set on E.typhi; 0.24 µg/mL with B.Subtitis ATCC6633. Also, the MIC came to 31.2 µg/mL (≈ 72.1 µM) in the data set on Sh.dysenteriae Flexneri; 0.19 µg/mL in the data set on Vibrion Metschnicoff; 0.048 µg/mL with Strept. pyrogenes; 62.5 µg/mL (≈ 144 µM) in the data set with E.coli O-55; 62.5 µg/mL with Prot.vulgaris. The “Quantity” value in data set [2] came to 24.9 units.
Consider `CCOc1cccc(C2(C(=O)NC3C(=O)N4C3SC(C)(C)C4C(=O)O)CC2)c1` (stereo not shown) [Compound VIII (Table 2)], for which, in data set [1] (Table 2, cyclopropyl series), the half-life was 7.3 min. In “in vivo”, this compound registered an MTD of 1500 mg/kg.
As to `CC(C)Oc1ccccc1C1(C(=O)N[C@@H]2C(=O)N3[C@@H]2SC(C)(C)[C@@H]3C(=O)O)CCC1` [Compound V (Table 3)], in data set [1] (Table 3, cyclobutyl series), the half-life stood at 18.6 min. Also, in “in vivo”, the MTD was found to be 250 mg/kg.
Taken in the same sequence, the figures for `CCCOc1ccc(C2(C(=O)N[C@@H]3C(=O)N4[C@@H]3SC(C)(C)[C@@H]4C(=O)O)CCC2)cc1` [Compound XIV (Table 3)] were 27.3 min and 250 mg/kg.
With `CCCCOc1cccc(C2(C(=O)N[C@@H]3C(=O)N4[C@@H]3SC(C)(C)[C@@H]4C(=O)O)CC2)c1` [Compound XI (Table 2)], the half-life in data set [1] (Table 2, cyclopropyl series) amounted to 6.2 min. The same compound gave an MTD in the data set “in vivo” of 250 mg/kg.
As to `CC(C)Oc1ccc(C2(C(=O)N[C@@H]3C(=O)N4[C@@H]3SC(C)(C)[C@@H]4C(=O)O)CCC2)cc1` [Compound XV (Table 3)], the half-life in data set [1] (Table 3, cyclobutyl series) turned out to be 60.1 min. This compound also had an MTD in “in vivo” of 500 mg/kg.
For the compound `CC(C)Oc1cccc(C2(C(=O)N[C@@H]3C(=O)N4[C@@H]3SC(C)(C)[C@@H]4C(=O)O)CCC2)c1` [Compound X (Table 3)], in data set [1] (Table 3, cyclobutyl series), the half-life stood at 17.2 min. The MTD in “in vivo” stood at 500 mg/kg.
For `CCCCOc1cccc(C2(C(=O)N[C@@H]3C(=O)N4[C@@H]3SC(C)(C)[C@@H]4C(=O)O)CCC2)c1` [Compound XI (Table 3)] the same measures were 46.6 min and 1000 mg/kg.
As for `CCCCOc1ccc(C2(C(=O)N[C@@H]3C(=O)N4[C@@H]3SC(C)(C)[C@@H]4C(=O)O)CCC2)cc1` [Compound XVI (Table 3)], the half-life in [1] (Table 3, cyclobutyl series) came out at 25.6 min. Moreover, in “in vivo”, the MTD was 500 mg/kg.
`CCCOc1ccc(C2(C(=O)N[C@@H]3C(=O)N4[C@@H]3SC(C)(C)[C@@H]4C(=O)O)CC2)cc1` [Compound XIV (Table 2)]: the half-life in data set [1] (Table 2, cyclopropyl series) amounted to 19.4 min. Besides, the MTD in the data set “in vivo” is 1000 mg/kg.

Values taken from patent publication US4130559A, “Method for the preparation of 6-aminopenicillinic acid derivatives” (priority 1977, dated 1978).
